{"source": "PubChem BioAssay (NCI)", "experiment_in_all_cases": "inhibition of tumour cell growth, NCI panel, 48 h", "key": {"[1]": {"test_system": "SW-620 colon"}, "[2]": {"test_system": "NCI-H460 lung"}, "[3]": {"test_system": "K-562 leukemia"}, "[4]": {"test_system": "HCT-15 colon"}, "[5]": {"test_system": "MCF7 breast"}, "[6]": {"test_system": "SF-268 CNS"}, "[7]": {"test_system": "RPMI-8226 leukemia"}, "[8]": {"test_system": "SNB-75 CNS"}, "[9]": {"test_system": "DU-145 prostate"}, "[10]": {"test_system": "SK-MEL-5 melanoma"}, "[11]": {"test_system": "LOX IMVI melanoma"}, "[12]": {"test_system": "OVCAR-5 ovarian"}, "[13]": {"test_system": "SK-MEL-28 melanoma"}, "[14]": {"test_system": "SNB-19 CNS"}, "[15]": {"test_system": "TK-10 renal"}, "[16]": {"test_system": "KM12 colon"}, "[17]": {"test_system": "SK-OV-3 ovarian"}, "[18]": {"test_system": "A549 NSCLC"}, "[19]": {"test_system": "OVCAR-3 ovarian"}, "[20]": {"test_system": "SF-295 CNS"}, "[21]": {"test_system": "UACC-62 melanoma"}, "[22]": {"test_system": "MOLT-4 leukemia"}, "[23]": {"test_system": "HOP-62 NSCLC"}, "[24]": {"test_system": "M14 melanoma"}, "[25]": {"test_system": "786-0 renal"}, "[26]": {"test_system": "HCT-116 colon"}, "[27]": {"test_system": "UACC-257 melanoma"}, "[28]": {"test_system": "EKVX NSCLC"}, "[29]": {"test_system": "CCRF-CEM leukemia"}, "[30]": {"test_system": "SF-539 CNS"}, "[31]": {"test_system": "UO-31 renal"}, "[32]": {"test_system": "SR leukemia"}, "[33]": {"test_system": "NCI-H23 lung"}, "[34]": {"test_system": "MDA-MB-435"}, "[35]": {"test_system": "HCC-2998 colon"}, "[36]": {"test_system": "IGROV1 ovarian"}, "[37]": {"test_system": "T-47D breast"}, "[38]": {"test_system": "PC-3 prostate"}, "[39]": {"test_system": "COLO 205 colon"}, "[40]": {"test_system": "RXF 393 renal"}, "[41]": {"test_system": "MDA-MB-231 breast"}, "[42]": {"test_system": "NCI-H522 lung"}, "[43]": {"test_system": "U251 CNS"}, "[44]": {"test_system": "HL-60(TB) leukemia"}, "[45]": {"test_system": "BT-549 breast"}, "[46]": {"test_system": "MDA-N"}, "[47]": {"test_system": "OVCAR-8 ovarian"}, "[48]": {"test_system": "HOP-92 NSCLC"}, "[49]": {"test_system": "OVCAR-4 ovarian"}, "[50]": {"test_system": "SN12C renal"}, "[51]": {"test_system": "HT29 colon"}, "[52]": {"test_system": "A498 renal"}, "[53]": {"test_system": "NCI-H226 lung"}, "[54]": {"test_system": "HS 578T breast"}, "[55]": {"test_system": "SK-MEL-2 melanoma"}, "[56]": {"test_system": "MALME-3M melanoma"}, "[57]": {"test_system": "NCI/ADR-RES ovarian"}, "[58]": {"test_system": "ACHN renal"}}, "note": "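Cells were grown in 96-well plates and exposed to each compound for 48 hours at five concentrations; endpoints were interpolated linearly between bracketing concentrations, or set to the highest concentration if not reached. TGI: total growth inhibition.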", "data": [{"smiles": "COc1cccc(-c2nc(-c3cnccn3)n(Cc3ccccc3)n2)c1", "values": [{"measurement": "TGI", "setting": "[1]", "value": "> 100", "unit": "µM"}, {"measurement": "TGI", "setting": "[2]", "value": "> 100", "unit": "µM"}, {"measurement": "TGI", "setting": "[3]", "value": "> 100", "unit": "µM"}, {"measurement": "TGI", "setting": "[4]", "value": "> 100", "unit": "µM"}, {"measurement": "TGI", "setting": "[5]", "value": "> 100", "unit": "µM"}, {"measurement": "TGI", "setting": "[6]", "value": "> 100", "unit": "µM"}, {"measurement": "TGI", "setting": "[7]", "value": "> 100", "unit": "µM"}, {"measurement": "TGI", "setting": "[8]", "value": "> 100", "unit": "µM"}, {"measurement": "TGI", "setting": "[9]", "value": "> 100", "unit": "µM"}, {"measurement": "TGI", "setting": "[10]", "value": "> 100", "unit": "µM"}, {"measurement": "TGI", "setting": "[11]", "value": "> 100", "unit": "µM"}, {"measurement": "TGI", "setting": "[12]", "value": "> 100", "unit": "µM"}, {"measurement": "TGI", "setting": "[13]", "value": "> 100", "unit": "µM"}, {"measurement": "TGI", "setting": "[14]", "value": "> 100", "unit": "µM"}, {"measurement": "TGI", "setting": "[15]", "value": "> 100", "unit": "µM"}, {"measurement": "TGI", "setting": "[16]", "value": "> 100", "unit": "µM"}, {"measurement": "TGI", "setting": "[17]", "value": "> 100", "unit": "µM"}, {"measurement": "TGI", "setting": "[18]", "value": "> 100", "unit": "µM"}, {"measurement": "TGI", "setting": "[19]", "value": "> 100", "unit": "µM"}, {"measurement": "TGI", "setting": "[20]", "value": "> 100", "unit": "µM"}, {"measurement": "TGI", "setting": "[21]", "value": "> 100", "unit": "µM"}, {"measurement": "TGI", "setting": "[22]", "value": "> 100", "unit": "µM"}, {"measurement": "TGI", "setting": "[23]", "value": "> 100", "unit": "µM"}, {"measurement": "TGI", "setting": "[24]", "value": "> 100", "unit": "µM"}, {"measurement": "TGI", "setting": "[25]", "value": "> 100", "unit": "µM"}, {"measurement": "TGI", "setting": "[26]", "value": "> 100", "unit": "µM"}, {"measurement": "TGI", "setting": "[27]", "value": "> 100", "unit": "µM"}, {"measurement": "TGI", "setting": "[28]", "value": "> 100", "unit": "µM"}, {"measurement": "TGI", "setting": "[29]", "value": "> 100", "unit": "µM"}, {"measurement": "TGI", "setting": "[30]", "value": "> 100", "unit": "µM"}, {"measurement": "TGI", "setting": "[31]", "value": "> 100", "unit": "µM"}, {"measurement": "TGI", "setting": "[32]", "value": "> 100", "unit": "µM"}, {"measurement": "TGI", "setting": "[33]", "value": "> 100", "unit": "µM"}, {"measurement": "TGI", "setting": "[34]", "value": "> 100", "unit": "µM"}, {"measurement": "TGI", "setting": "[35]", "value": "> 100", "unit": "µM"}, {"measurement": "TGI", "setting": "[36]", "value": "> 100", "unit": "µM"}, {"measurement": "TGI", "setting": "[37]", "value": "> 100", "unit": "µM"}, {"measurement": "TGI", "setting": "[38]", "value": "> 100", "unit": "µM"}, {"measurement": "TGI", "setting": "[39]", "value": "> 100", "unit": "µM"}, {"measurement": "TGI", "setting": "[40]", "value": 64, "unit": "µM"}, {"measurement": "TGI", "setting": "[41]", "value": "> 100", "unit": "µM"}, {"measurement": "TGI", "setting": "[42]", "value": "> 100", "unit": "µM"}, {"measurement": "TGI", "setting": "[43]", "value": "> 100", "unit": "µM"}, {"measurement": "TGI", "setting": "[44]", "value": "> 100", "unit": "µM"}, {"measurement": "TGI", "setting": "[45]", "value": "> 100", "unit": "µM"}, {"measurement": "TGI", "setting": "[46]", "value": "> 100", "unit": "µM"}, {"measurement": "TGI", "setting": "[47]", "value": "> 100", "unit": "µM"}, {"measurement": "TGI", "setting": "[48]", "value": 81.1, "unit": "µM"}, {"measurement": "TGI", "setting": "[49]", "value": "> 100", "unit": "µM"}, {"measurement": "TGI", "setting": "[50]", "value": "> 100", "unit": "µM"}, {"measurement": "TGI", "setting": "[51]", "value": "> 100", "unit": "µM"}]}, {"smiles": "C[C@]12CC/C(=N\\O)C=C1CC[C@@H]1[C@@H]2CC[C@]2(C)C(=N/O)/C(=C/c3cccnc3)C[C@@H]12", "values": [{"measurement": "TGI", "setting": "[52]", "value": 44.4, "unit": "µM"}, {"measurement": "TGI", "setting": "[53]", "value": 18.1, "unit": "µM"}, {"measurement": "TGI", "setting": "[1]", "value": "> 100", "unit": "µM"}, {"measurement": "TGI", "setting": "[2]", "value": 22.7, "unit": "µM"}, {"measurement": "TGI", "setting": "[3]", "value": 27.7, "unit": "µM"}, {"measurement": "TGI", "setting": "[4]", "value": 44.5, "unit": "µM"}, {"measurement": "TGI", "setting": "[54]", "value": 18.6, "unit": "µM"}, {"measurement": "TGI", "setting": "[5]", "value": 29.2, "unit": "µM"}, {"measurement": "TGI", "setting": "[55]", "value": 97.8, "unit": "µM"}, {"measurement": "TGI", "setting": "[7]", "value": 8.95, "unit": "µM"}, {"measurement": "TGI", "setting": "[9]", "value": "> 100", "unit": "µM"}, {"measurement": "TGI", "setting": "[11]", "value": 9.74, "unit": "µM"}, {"measurement": "TGI", "setting": "[12]", "value": 75.3, "unit": "µM"}, {"measurement": "TGI", "setting": "[13]", "value": 53.1, "unit": "µM"}, {"measurement": "TGI", "setting": "[14]", "value": "> 100", "unit": "µM"}, {"measurement": "TGI", "setting": "[15]", "value": 59.3, "unit": "µM"}, {"measurement": "TGI", "setting": "[16]", "value": 32.1, "unit": "µM"}, {"measurement": "TGI", "setting": "[17]", "value": "> 100", "unit": "µM"}, {"measurement": "TGI", "setting": "[18]", "value": 59.8, "unit": "µM"}, {"measurement": "TGI", "setting": "[20]", "value": 31.7, "unit": "µM"}, {"measurement": "TGI", "setting": "[21]", "value": 10.4, "unit": "µM"}, {"measurement": "TGI", "setting": "[22]", "value": 4, "unit": "µM"}, {"measurement": "TGI", "setting": "[23]", "value": 85.5, "unit": "µM"}, {"measurement": "TGI", "setting": "[24]", "value": 75, "unit": "µM"}, {"measurement": "TGI", "setting": "[56]", "value": 72.3, "unit": "µM"}, {"measurement": "TGI", "setting": "[25]", "value": "> 100", "unit": "µM"}, {"measurement": "TGI", "setting": "[26]", "value": "> 100", "unit": "µM"}, {"measurement": "TGI", "setting": "[27]", "value": 57.2, "unit": "µM"}, {"measurement": "TGI", "setting": "[28]", "value": 79.5, "unit": "µM"}, {"measurement": "TGI", "setting": "[29]", "value": "> 100", "unit": "µM"}, {"measurement": "TGI", "setting": "[30]", "value": 82.8, "unit": "µM"}, {"measurement": "TGI", "setting": "[31]", "value": 79.9, "unit": "µM"}, {"measurement": "TGI", "setting": "[33]", "value": "> 100", "unit": "µM"}, {"measurement": "TGI", "setting": "[34]", "value": 46.9, "unit": "µM"}, {"measurement": "TGI", "setting": "[36]", "value": "> 100", "unit": "µM"}, {"measurement": "TGI", "setting": "[38]", "value": "> 100", "unit": "µM"}, {"measurement": "TGI", "setting": "[39]", "value": 61.8, "unit": "µM"}, {"measurement": "TGI", "setting": "[41]", "value": 56.2, "unit": "µM"}, {"measurement": "TGI", "setting": "[42]", "value": 45.2, "unit": "µM"}, {"measurement": "TGI", "setting": "[43]", "value": 94.9, "unit": "µM"}, {"measurement": "TGI", "setting": "[57]", "value": "> 100", "unit": "µM"}, {"measurement": "TGI", "setting": "[44]", "value": 4.12, "unit": "µM"}, {"measurement": "TGI", "setting": "[45]", "value": 54.3, "unit": "µM"}, {"measurement": "TGI", "setting": "[46]", "value": 49.3, "unit": "µM"}, {"measurement": "TGI", "setting": "[47]", "value": 80.3, "unit": "µM"}, {"measurement": "TGI", "setting": "[58]", "value": 73.4, "unit": "µM"}, {"measurement": "TGI", "setting": "[48]", "value": 63.5, "unit": "µM"}, {"measurement": "TGI", "setting": "[49]", "value": 65.3, "unit": "µM"}, {"measurement": "TGI", "setting": "[50]", "value": 43.5, "unit": "µM"}, {"measurement": "TGI", "setting": "[51]", "value": 79.5, "unit": "µM"}]}]}
